Here are results for eleven compounds from US20240116946A1 (Gilead Sciences, Inc., priority 2022, published 2024).

Read-outs that look alike come from different tables or passages of the source.

One assay deals with SARS-CoV-2 main protease (Severe acute respiratory syndrome coronavirus 2 (2019-nCoV) (SARS-CoV-2), UniProt P0DTD1). Briefly: activity comparison of separated atropisomers (assay not given). The note with it: Isomer 1 versus Isomer 2 after chiral SFC separation; used to assign stereochemistry by analogy to Example 438.
Assay [1] concerns the target recombinant SARS-CoV-2 Main protease (Mpro) (Severe acute respiratory syndrome coronavirus 2 (2019-nCoV) (SARS-CoV-2), UniProt P0DTD1). In words: Cov Mpro Biochemical IC50 Assay. To be noted: recombinant SARS-CoV-2 Mpro 7.5 nM, fluorogenic peptide substrate 40 μM; read-out: MPro IC50.
A further assay deals with SARS-CoV-2-NLuc. In words: microbe, parasite or virus in culture. It is filed as cell-based, SARS Coronavirus 2.
[2] abbreviates: Severe acute respiratory syndrome coronavirus, 48 h, read-out: MPro EC50.

Consider `COc1ccc2cncc(-n3c(=O)[nH]c4cc(-c5ccccc5Cl)sc4c3=O)c2c1` (single isomer, unassigned) [Example 440, 6-(2-chlorophenyl)-3-(6-methoxyisoquinolin-4-yl)thieno[3,2-d]pyrimidine-2,4(1H,3H)-dione], for which the “relative activity of the two separated isomers” value (from here on “relative activity”) on SARS-CoV-2 main protease is on record as “more active isomer”. In addition, in assay [1], the IC50 was under 3.94 nM. Also, the concentration for a half-maximal effect (EC50) with SARS-CoV-2-NLuc (read-out: MPro EC50) came to 13.4 nM.
For `O=c1[nH]c2cc(-c3ccccc3Cl)sc2c(=O)n1-c1cncc2ccc(N3CCOCC3)cc12` (single isomer, unassigned) [Example 442, 6-(2-chlorophenyl)-3-(6-morpholinoisoquinolin-4-yl)thieno[3,2-d]pyrimidine-2,4(1H,3H)-dione], the “relative activity” value on SARS-CoV-2 main protease is listed as “more active isomer”. The IC50 in assay [1] is under 3.43 nM. Moreover, the EC50 in the assay on SARS-CoV-2-NLuc (read-out: MPro EC50) came out at 12.3 nM.
On the same counts, the results for `Cn1cc(-c2cccc(Cl)c2-c2cc3[nH]c(=O)n(-c4cncc5ccccc45)c(=O)c3s2)c(C(F)(F)F)n1` (single isomer, unassigned) [Example 447, 6-(2-chloro-6-(1-methyl-3-(trifluoromethyl)-1H-pyrazol-4-yl)phenyl)-3-(isoquinolin-4-yl)thieno[3,2-d]pyrimidine-2,4(1H,3H)-dione] are “more active isomer”, 4.21 nM and 6.58 nM.
On the same counts, the results for `O=c1[nH]c2cc(-c3ccccc3Cl)sc2c(=O)n1-c1cncc2cccnc12` (single isomer, unassigned) [Example 464, 6-(2-chlorophenyl)-3-(1,6-naphthyridin-8-yl)thieno[3,2-d]pyrimidine-2,4(1H,3H)-dione] are “more active isomer”, 4.68 nM and 11.5 nM.
For `COc1ccc(Cl)c(-c2cc3[nH]c(=O)n(-c4cncc5ccccc45)c(=O)c3s2)c1` (single isomer, unassigned) [Example 465, 6-(2-chloro-5-methoxyphenyl)-3-(isoquinolin-4-yl)thieno[3,2-d]pyrimidine-2,4(1H,3H)-dione], the “relative activity” value on SARS-CoV-2 main protease is “more active isomer”. The IC50 in assay [1] was under 3.56 nM. Moreover, in the assay with SARS-CoV-2-NLuc (read-out: MPro EC50), the EC50 was 5.23 nM.
`COc1ccc(Cl)c(-c2cc3[nH]c(=O)n(-c4cncc5cccnc45)c(=O)c3s2)c1` (single isomer, unassigned) [Example 468, 6-(2-chloro-5-methoxyphenyl)-3-(1,6-naphthyridin-8-yl)thieno[3,2-d]pyrimidine-2,4(1H,3H)-dione]: the “relative activity” value at SARS-CoV-2 main protease is recorded as “more active isomer”. The concentration for half-maximal inhibition (IC50) in assay [1] is under 2.54 nM. The EC50 with SARS-CoV-2-NLuc (read-out: MPro EC50) was under 6.34 nM.
On to `COc1ccc(Cl)c(-c2ccc3c(=O)n(-c4cncc5ccccc45)c(=O)[nH]c3c2)c1` (single isomer, unassigned) [Example 475, 7-(2-chloro-5-methoxy-phenyl)-3-(4-isoquinolyl)-1H-quinazoline-2,4-dione], for which the “relative activity” value at SARS-CoV-2 main protease is “more active isomer”. Further, the concentration for half-maximal inhibition (IC50) in assay [1] amounted to 17.1 nM. Besides, the EC50 with SARS-CoV-2-NLuc (read-out: MPro EC50) was determined as 28.5 nM.
On the same counts, the results for `Cn1cnc(Cn2c(=O)n(-c3cncc4ccccc34)c(=O)c3sc(-c4ccccc4Cl)cc32)n1` (single isomer, unassigned) [Example 477, 6-(2-chlorophenyl)-3-(4-isoquinolyl)-1-[(1-methyl-1,2,4-triazol-3-yl)methyl]thieno[3,2-d]pyrimidine-2,4-dione] are “more active isomer”, 58 nM and 165 nM.
For `COc1cc(-c2cc3c(s2)c(=O)n(-c2cncc(CO)c2)c(=O)n3CCC#N)c(Cl)cc1F` [Example 1100, 3-(6-(2-chloro-4-fluoro-5-methoxyphenyl)-3-(5-(hydroxymethyl)pyridin-3-yl)-2,4-dioxo-3,4-dihydrothieno[3,2-d]pyrimidin-1(2H)-yl)propanenitrile], the 50% inhibitory concentration (IC50) in assay [1] amounted to 2.6 nM. Also, in the assay on SARS-CoV-2-NLuc (Severe acute respiratory syndrome coronavirus, 48 h; read-out: MPro EC50), the EC50 stood at 15 nM.
Consider `N#CCCn1c(=O)n(-c2cncc(CO)c2)c(=O)c2sc(-c3ccccc3C#N)cc21` [Example 1101], for which, in assay [1], the IC50 stood at 36.3 nM. For the same compound, the EC50 in the assay with SARS-CoV-2-NLuc (setting [2]) is over 1000 nM.
As for `COc1cc(-c2cc3c(s2)c(=O)n(-c2cncc(CO)c2)c(=O)n3CCC#N)c(C#N)cc1F` [Example 1102], the concentration for half-maximal inhibition (IC50) in assay [1] is 4.12 nM. Moreover, the EC50 with SARS-CoV-2-NLuc (setting [2]) is 568 nM.
